Measurements from the supplement of paper PMC11061612.

Assays:
[1] = tested on: HuP-T3 (Pancreatic Carcinoma); test: combination Emax (second highest fraction inhibited in the dose matrix, 72 h); higher = more inhibition; extreme values may be limits of the assay
Procedure, shortened: (§1)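 Cell lines grown in DMEM/F12 or RPMI with 10% FBS were plated in 1536-well plates and held 24 hours at 37°C, 5% CO2 before 72 hours of exposure to two-drug dose matrices, with DMSO typically at 0.2%. CellTiter-Glo 2.0 luminescence gave viability, which was converted to inhibition. Vehicle wells were set to 0 and blank wells to 1. Combination Emax is the second-highest inhibition in the matrix, and Bliss excess is the observed combination effect minus the expected EA + EB − EA·EB, where EA and EB are the single-agent effects.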

[2] = tested on: OCUM-1 (Gastric Carcinoma); test: as above
Procedure, shortened: as §1

[3] = tested on: GI-1 (Glioblastoma); test: as above
Procedure, shortened: as §1

[4] = tested on: NCI-H513 (Other Solid Carcinomas); test: as above
Procedure, shortened: as §1

[5] = tested on: H-EMC-SS (Chondrosarcoma); test: as above
Procedure, shortened: as §1

[6] = tested on: NCI-H2347 (Lung Adenocarcinoma); test: as above
Procedure, shortened: as §1

[7] = tested on: OCUB-M (Breast Carcinoma); test: as above
Procedure, shortened: as §1

[8] = tested on: ASH-3 (Thyroid Gland Carcinoma); test: Bliss excess, mean over the matrix (fraction); higher = more synergy
Procedure, shortened: as §1

[9] = tested on: LC4-1 (B-Lymphoblastic Leukemia); test: as above
Procedure, shortened: as §1

[10] = tested on: BT-20 (Breast Carcinoma); test: as above
Procedure, shortened: as §1

[11] = tested on: NH-12 (Neuroblastoma); test: as above
Procedure, shortened: as §1

[12] = tested on: SCC-3 (B-Cell Non-Hodgkin's Lymphoma); test: as above
Procedure, shortened: as §1

[13] = tested on: PF-382 (T-Lymphoblastic Leukemia); test: as above
Procedure, shortened: as §1

[14] = tested on: EMC-BAC-2 (Non-Small Cell Lung Carcinoma); test: as above
Procedure, shortened: as §1

[15] = tested on: H-EMC-SS (Chondrosarcoma); test: as above
Procedure, shortened: as §1

[16] = tested on: EBC-1 (Squamous Cell Lung Carcinoma); test: as above
Procedure, shortened: as §1

[17] = tested on: LOU-NH91 (Squamous Cell Lung Carcinoma); test: as above
Procedure, shortened: as §1

[18] = tested on: KYSE-50 (Esophageal Squamous Cell Carcinoma); test: as above
Procedure, shortened: as §1

[19] = tested on: OVISE (Ovarian Carcinoma); test: as above
Procedure, shortened: as §1
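For Bliss excess, mean over the matrix in this document: after 72 h of two-drug dosing.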

Compound	combination Emax [1]	combination Emax [2]	combination Emax [3]	combination Emax [4]	combination Emax [5]	combination Emax [6]	combination Emax [7]	Bliss excess [8]	Bliss excess [9]	Bliss excess [10]	Bliss excess [11]	Bliss excess [12]	Bliss excess [13]	Bliss excess [14]	Bliss excess [15]	Bliss excess [16]	Bliss excess [17]	Bliss excess [18]	Bliss excess [19]
CN(C)CCCOc1ccc(-c2ccc3ncc4c(c3c2)n(C2CCOCC2)c(=O)n4C)cn1 [AZD0156] + C[C@@H]1COCCN1C2=NC(=NC(=C2)C3(CC3)[S@](=N)(=O)C)C4=C5C=CNC5=NC=C4 [AZD6738] (first compound max 1 µM, 7x7, partner max 10 µM)	0.658	0.783	0.926	0.315	0.402	0.346	0.494	0.0429	-0.0743	0.0152	-0.0215	0.0521	0.0357	0.0272	-0.0707	0.0195	-0.0001	0.0101	0.0317
CCN(CCO)CCCOc1ccc2c(Nc3cc(CC(=O)Nc4cccc(F)c4)[nH]n3)ncnc2c1 [AZD2811] + C[C@@H]1COCCN1C2=NC(=NC(=C2)C3(CC3)[S@](=N)(=O)C)C4=C5C=CNC5=NC=C4 [AZD6738] (first compound max 1 µM, 7x7, partner max 10 µM)	0.589	0.708	0.922	0.283	0.412	0.343	0.748	-0.0367	-0.0882	-0.0356	0.0347	0.0411	-0.089	-0.0939	-0.0723	-0.0182	-0.0583	-0.051	-0.0542
C=CCn1c(=O)c2cnc(Nc3ccc(N4CCN(C)CC4)cc3)nc2n1-c1cccc(C(C)(C)O)n1 [AZD1775] + O=C(c1cc(Cc2n[nH]c(=O)c3ccccc23)ccc1F)N1CCN(C(=O)C2CC2)CC1 [Olaparib] (first compound max 1 µM, partner max 10 µM)	0.274	0.473	0.917	0.389	0.333	0.35	0.504	-0.0054	0.0226	-0.0681	-0.0167	-0.0259	-0.0265	-0.0526	-0.0807	-0.0549	-0.0271	-0.0206	-0.0084
CCc1c2c(nc3ccc(O)cc13)-c1cc3c(c(=O)n1C2)COC(=O)[C@]3(O)CC [SN-38] + CN(C)CCCOc1ccc(-c2ccc3ncc4c(c3c2)n(C2CCOCC2)c(=O)n4C)cn1 [AZD0156] (first compound max 0.3 µM, 7x7, partner max 1 µM)	0.704	0.635	0.974	0.544	0.643	0.564	0.764	0.0121	-0.0587	0.0684	-0.0954	0.0372	0.0739	0.0414	-0.0092	-0.0488	0.011	-0.0053	-0.0355
